No end group written: not given here.

Data set [1] has as its system C57BL/6 mice. Nature of the data set: Conscious echocardiography of cardiac function after acute myocardial infarction (permanent LAD ligation). From the text: Eight to ten week old C57BL/6 mice (25-30 g) were obtained from Charles River (Wilmington, Mass.) and maintained for at least 7 days with free access to standard rodent food and water. Myocardial infarction was induced by permanent ligation of the left anterior descending (LAD) coronary artery as described previously [Maejima Y, Kyoi S, Zhai P, Liu T, Li H, Ivessa A, et al. Mst1 inhibits autophagy by promoting the interaction between Beclin1 and Bcl-2. Nature Medicine. 2013; 19:1478-88; Qian L, Huang Y, Spencer C I, Foley A, Vedantham V, Liu L, et al. In vivo reprogramming of murine cardiac fibroblasts into induced cardiomyocytes. Nature. 2012; 485:593-8]. Post-surgery, mice were immediately treated with lidocaine (6 mg/kg IM) and atropine (0.04-0.10 mg/kg IM) upon surgical closure, followed by lidocaine and atropine every 2-4 hours for the first 24 hours to prevent arrhythmias. Post-anesthesia, mice were given 0.1 mg/kg buprenorphine every 12 hours for the first 48 hours. […] Cardiac function was measured by conscious echocardiography using a Vevo 2100 ultrasound biomicrscopy system (VisualSonics, Inc., Toronto, Canada) at baseline, 1, 7, and 14 days, as previously described [Oakley R H, Ren R, Cruz-Topete D, Bird G S, Myers P H, Boyle M C, et al. Essential role of stress hormone signaling in cardiomyocytes for the prevention of heart disease. Proc Natl Acad Scie USA. 2013; 110:17035-40; Willis M S, Homeister J W, Rosson G B, Annayev Y, Holley D, Holly S P, et al. Functional redundancy of SWI/SNF catalytic subunits in maintaining vascular endothelial cells in the adult heart. Circulation Res. 2012; 111:e111-22; Willis M S, Schisler J C, Li L, Rodriguez J E, Hilliard E G, Charles P C, et al. Cardiac muscle ring finger-1 increases susceptibility to heart failure in vivo. Circulation Res. 2009; 105:80-8].
Echocardiography was used to follow cardiac function and morphometry prior to the surgical induction of an acute myocardial infarction (AMI) induced by thoracotomy and ligation of the left anterior descending coronary artery in C57BL/6 mice. Cardiac function was then followed at 7 and 14 days post-AMI (FIG. 1A).

Data set [2] relates to H9C2 cells. Nature of the data set: Caspase 3/7 activity in H9C2 cells challenged with 1% hypoxia. In kind it is cell-based, rat. The settings on record: 100 μM, 16 and 24 hours. How it is done: H9C2 is a myoblast cell line derived from rat myocardium obtained from ATCC® (CRL-1446, ATCC, Manassas, Va.) and cultured according to the recommended protocols. Briefly, cells were maintained at 37° C. with 5% CO2 in DMEM supplemented with 10% fetal bovine serum and antibiotics (100 U/ml penicillin, […] streptomycin) and split at a ratio of 1:4 using 0.05% trypsin every 36 hours. […]
Cells were rinsed in PMS and grown in DMEM (cat. #11966-025, Gibco) for 2 hours prior to initiating hypoxia (simulated ischemia). […] Three different time points were adopted for each of the three cell lines according to the severity of cell death under hypoxia determined by LDH release: for H9C2 cell line: 8 hr; 16 hr; 24 hr; for HL-1 cell line: 4 hr; 8 hr; 12 hr; for cardiac fibroblast cell line: 16 hr; 32 hr; 48 hr.
Cell death was first determined using an LDH release assay (cat. #630117, Clontech), according to the manufacturer's instructions. […] Caspase 3/7 activity was next determined using a commercial Caspase 3/7 activity kit (Cat. #G8091, Promega, Madison, Wis. 53711) in a 384 well plate (Cat. #781903, Greiner bio-one) according to the manufacturer's instructions. […] The resulting cell lysates (25 μl, with 0.6 ug total protein) and Caspase-Glo 3/7 Reagent were added to each well in a 1:1 ratio and the luminescence was read (CLARIOstar, BMG LABTECH GmbH). […]

Data set [3] deals with mouse vein graft model. The settings on record: Muto et al. 2012; cited from earlier work.
Data set [4] has as its system abdominal adhesions post-surgery. As to conditions: Ward et al. 2011; cited from earlier work.

As for YARAAARQARAKALARQLGVAA [MMI-0100], the “LV dilation: LVID; d decreased” value in data set [1] (AMI mice treated with MMI-0100, compared to sham, vs. 40% without MMI-0100) is reported as 29%. The “LV dilation: LV Volume; d decreased” value in data set [1] (AMI mice treated with MMI-0100, compared to sham, vs. 130% without MMI-0100) is given as 88%. Moreover, the “cardiac function compared to untreated AMI mice” value in data set [1] (AMI mice, 50 μg/kg/day intraperitoneally, first dose 30 minutes after LAD ligation, 1 and 2 weeks after AMI) was “significantly greater function”. Moreover, the “effect on cardiac function, MMI-0100 alone” value in data set [1] (mice without AMI, daily MMI-0100 intraperitoneally for 14 days) is listed as “did not have any effect”. The “caspase 3/7 activity” value in data set [2] is listed as “inhibited”. In addition, in data set [3], the “inflammation and fibrosis in intimal hyperplasia” value was “inhibits inflammation and fibrosis”. Moreover, in data set [4], the abdominal adhesions post-surgery result is recorded as “inhibiting”.

These data come from patent US10336788B2, “Inhibition of cardiac fibrosis in myocardial infarction” (Moerae Matrix, Inc., priority 2014, dated 2019).
